Results: patent US20020028836A1, “Potassium channel openers” (priority 2000, published 2002)
Where two headings read alike, the source gives them in different places.

System: tissue strips obtained from Landrace pig bladders
Test: Functional potassium channel opening activity in isolated bladder strips (field-stimulated twitch)
Conditions: for Index: ED50 for P1075 divided by ED50 for the test agonist in a given tissue, averaged; for EC50: amount of agent necessary to cause 50% of the agent's maximal response, read-out: ED50 (the source's name); for Emax / Efficacy (% P1075): maximal efficacy relative to P1075, field stimulation 0.05 Hz, 0.5 ms, 20 volts
Experimental: Compounds were evaluated for functional potassium channel opening activity using tissue strips obtained from Landrace pig bladders.
Landrace pig bladders were obtained from female Landrace pigs of 9-30 kg. Landrace pigs were euthanized with an intraperitoneal injection of pentobarbital solution, Somlethal®, J. A. Webster Inc., Sterling, Mass. The entire bladder was removed and immediately placed into Krebs Ringer bicarbonate solution (composition, mM: NaCl, 120; NaHCO3, 20; dextrose, 11; KCl, 4.7; CaCl2, 2.5; MgSO4, 1.5; KH2PO4, 1.2; K2EDTA, 0.01, equilibrated with 5% CO2/95% O2pH 7.4 at 37° C.). Propranolol (0.004 mM) was included in all of the assays to block β-adrenoceptors. The trigonal and dome portions were discarded. Strips 3-5 mm wide and 20 mm long were prepared from the remaining tissue cut in a circular fashion. The mucosal layer was removed. One end was fixed to a stationary glass rod and the other to a Grass FT03 transducer at a basal preload of 1.0 gram. Two parallel platinum electrodes were included in the stationary glass rod to provide field stimulation of 0.05 Hz, 0.5 milli-seconds at 20 volts. This low frequency stimulation produced a stable twitch response of 100-500 centigrams. Tissues were allowed to equilibrate for at least 60 minutes and primed with 80 mM KCl. A control concentration response curve (cumulative) was generated for each tissue using the potassium channel opener P1075 as the control agonist. […] After a 60 minute rinsing period, a concentration response curve (cumulative) was generated for the test agonist in the same fashion as that used for the control agonist P1075. The maximal efficacy of each compound (expressed as % relative to P1075) is reported. The amount of agent necessary to cause 50% of the agent's maximal response (ED50) was calculated using “ALLFIT” (DeLean et al., Am. J. Physiol., 235, E97 (1980)), hereby incorporated by reference. Agonist potencies were also expressed as an index relative to P1075. The index was calculated by dividing the ED50 for P1075 by the ED50 for the test agonist in a given tissue. Each tissue was used for only one test agonist, and the indices obtained from each tissue were averaged to provide an average index of potency.

| SMILES | EC50 (Sus scrofa) [µM] | EC50 [µM] | Index | Emax (Sus scrofa) [%] | Efficacy (% P1075) | stimulated twitch / stimulated contractions of the bladder (P1075: 10^−9 to 10^−5 M, cumulative, ½ log increments) |
| --- | --- | --- | --- | --- | --- | --- |
| CC(Cl)(Cl)C(NC(=O)c1cccc(Cl)c1)NC(=NC#N)Nc1cccnc1 (stereo not shown) [Example 119, 3-chloro-N-(2,2-dichloro-1-{[(cyanoimino)(3-pyridinylamino)methyl]amino}propyl)benzamide] | 3.4 |  | 0.939 | 78 |  |  |
| CC(C)(C)CC(NC(=O)c1ccc(Cl)cc1)NC(=NS(=O)(=O)C(F)(F)F)Nc1cccnc1 (stereo not shown) [Example 142, 4-chloro-N-{3,3-dimethyl-1-[((3-pyridinylamino){[(trifluoromethyl)sulfonyl]imino}methyl)amino]butyl}benzamide] |  | 0.6 | 0.270 |  | 44 |  |
| CC(C)(C)C(NC(=O)c1ccc(Cl)cc1)NC(=NC#N)Nc1cnc2ccccc2c1 (stereo not shown) [Example 83, 4-chloro-N-(1-{[(cyanoimino)(3-guinolinylamino)methyl]amino}-2,2-dimethylpropyl)benzamide] |  | 2.8 | 0.031 |  | 62 |  |
| CCC(C)(C)N=C(NC#N)Nc1cccnc1 [Example P1075, reference compound] |  |  |  |  |  | completely eliminated the stimulated twitch |
| CC(C)(C)CC(NC(=O)c1ccc(Cl)cc1)NC(=N[N+](=O)[O-])Nc1cccnc1 (single isomer, unassigned; (+)) [Example 125, (+) 4-chloro-N-(1-{[(nitroimino)(3-pyridinylamino)methyl]amino}-3,3-dimethylbutyl)benzamide] |  | 9.2 | 0.030 |  | 92 |  |
| CC(Cl)(Cl)C(NC(=O)c1cc(F)cc(F)c1)NC(=NC#N)Nc1cccnc1 (stereo not shown) [Example 120, N-(2,2-dichloro-1-{[(cyanoimino)(3-pyridinylamino)methyl]amino}propyl)-3,5-difluorobenzamide] | 7.5 |  | 0.017 | 84 |  |  |
| CC(Cl)(Cl)C(NC(=O)c1cccc(Cl)c1)NC(=NC#N)Nc1ccccc1F (stereo not shown) [Example 172, 3-chloro-N-(2,2-dichloro-1-{[(cyanoimino)(2-fluoroanilino)methyl]amino}propyl)benzamide] | 0.49 |  | 0.507 | 53 |  |  |
| CC(C)(C)CC(NC(=O)c1ccc(Br)cc1)NC(=NS(=O)(=O)C(F)(F)F)Nc1cccnc1 (stereo not shown) [Example 188, 4-bromo-N-{3,3-dimethyl-1-[((3-pyridinylamino){[(trifluoromethyl)sulfonyl]imino}methyl)amino]butyl}benzamide] | 10 |  | 0.020 | 87 |  |  |
| CC(Cl)(Cl)C(NC(=O)c1ccc(Cl)cc1)NC(=NC#N)Nc1ccccc1F (stereo not shown) [Example 175, 4-chloro-N-(2,2-dichloro-1-{[(cyanoimino)(2-fluoroanilino)methyl]amino}propyl)benzamide] | 1.5 |  | 0.148 | 54 |  |  |
| CC(C)(C)CC(NC(=O)c1ccc(C(F)(F)F)cc1)NC(=NS(=O)(=O)C(F)(F)F)Nc1cccnc1 (stereo not shown) [Example 189, N-{3,3-dimethyl-1-[((3-pyridinylamino){[(trifluoromethyl)sulfonyl]imino}methyl)amino]butyl}-4-(trifluoromethyl)benzamide] | 0.93 |  | 0.078 | 66 |  |  |
| CC(Cl)(Cl)C(NC(=O)c1cccc(Cl)c1)NC(=NC#N)Nc1cccc(F)c1 (stereo not shown) [Example 169, 3-chloro-N-(2,2-dichloro-1-{[(cyanoimino)(3-fluoroanilino)methyl]amino}propyl)benzamide] | 5 |  | 0.231 | 75 |  |  |
| CC(C)(C)CC(NC(=O)c1ccc(Cl)cc1)NC(=NS(=O)(=O)C(F)(F)F)Nc1cccnc1 (single isomer, unassigned; (-)) [Example 187, (−) 4-chloro-N-{3,3-dimethyl-1-[((3-pyridinylamino){[(trifluoromethyl)sulfonyl]imino}methyl)amino]butyl}benzamide] |  | 7.8 | 0.077 |  | 52 |  |
| COc1ncccc1NC(=NC#N)NC(NC(=O)c1cccc(Cl)c1)C(C)(Cl)Cl (stereo not shown) [Example 174, 3-chloro-N-[2,2-dichloro-1-({(cyanoimino)[(2-methoxy-3-pyridinyl)amino]methyl}amino)propyl]benzamide] | 1.2 |  | 2.2 | 34 |  |  |

Second part, led by results:

| EC50 (Sus scrofa) [µM] | EC50 [µM] | SMILES | Index | Emax (Sus scrofa) [%] | Efficacy (% P1075) | stimulated twitch / stimulated contractions of the bladder (P1075: 10^−9 to 10^−5 M, cumulative, ½ log increments) |
| --- | --- | --- | --- | --- | --- | --- |
| 3.1 |  | CC(Cl)(Cl)C(NC(=O)c1cccs1)NC(=NC#N)Nc1ccc(Cl)nc1 (stereo not shown) [Example 192, N-(2,2-dichloro-1-{[[(6-chloro-3-pyridinyl)amino](cyanoimino)methyl]amino}propyl)-2-thiophenecarboxamide] | 0.019 | 99 |  |  |
| 4 |  | CC(Cl)(Cl)C(NC(=O)c1cccc(F)c1)NC(=NC#N)Nc1ccc(Cl)nc1 (stereo not shown) [Example 156, N-(2,2-dichloro-1-{[[(6-chloro-3-pyridinyl)amino](cyanoimino)methyl]amino}propyl)-3-fluorobenzamide] | 0.048 | 93 |  |  |
| 2.3 |  | CC(Cl)(Cl)C(NC(=O)c1ccc(Cl)cc1)NC(=NC#N)Nc1ccc(F)nc1 (stereo not shown) [Example 180, 4-chloro-N-[2,2-dichloro-1-({(cyanoimino)[(6-fluoro-3-pyridinyl)amino]methyl}amino)propyl]benzamide] | 0.040 | 98 |  |  |
|  | 4 | CC(Cl)(Cl)C(NC(=O)c1ccc(Cl)cc1)NC(=NC#N)Nc1ccc(Cl)nc1 (single isomer, unassigned; (-)) [Example 161, (−) 4-chloro-N-(2,2-dichloro-1-{[[(6-chloro-3-pyridinyl)amino](cyanoimino)methyl]amino}propyl)benzamide] | 0.108 |  | 93 |  |
| 4.8 |  | CC(Cl)(Cl)C(NC(=O)c1ccc(Cl)cc1)NC(=NC#N)Nc1ccc(C(F)(F)F)nc1 (stereo not shown) [Example 158, 4-chloro-N-{2,2-dichloro-1-[((cyanoimino){[6-(trifluoromethyl)-3-pyridinyl]amino}methyl)amino]propyl}benzamide] | 0.061 | 92 |  |  |
| 0.89 |  | CC(Cl)(Cl)C(NC(=O)c1ccc(Cl)cc1)NC(=NC#N)Nc1cccnc1Cl (stereo not shown) [Example 168, 4-chloro-N-(2,2-dichloro-1-{[[(2-chloro-3-pyridinyl)amino](cyanoimino)methyl]amino}propyl)benzamide] | 0.064 | 92 |  |  |
|  | 5.8 | CC(Cl)(Cl)C(NC(=O)c1ccc(Cl)cc1)NC(=NC#N)Nc1cccnc1 (single isomer, unassigned; (-)) [Example 117, (−) 4-chloro-N-(2,2-dichloro-1-{[(cyanoimino)(3-pyridinylamino)methyl]amino}propyl)benzamide] | 0.030 |  | 79 |  |
|  | 9 | CC(Cl)(Cl)C(NC(=O)c1ccc(Cl)cc1)NC(=NC#N)Nc1ccc(Cl)nc1 (single isomer, unassigned; (+)) [Example 162, (+) 4-chloro-N-(2,2-dichloro-1-{[[(6-chloro-3-pyridinyl)amino](cyanoimino)methyl]amino}propyl)benzamide] | 0.025 |  | 87 |  |
